Data as given in US8822517B2, “Arylosulfonamides for the treatment of CNS diseases” (Adamed SP. Z O.O., priority 2010, dated 2014).

Experiments:
dopaminergic D2 receptor [1] = target: T1, dopaminergic D2 receptor (Homo sapiens, UniProt P14416); experiment: Binding assay D2S (h), [3H]methyl-spiperone, HEK-293 cells; parameters: expressed in transfected cells; host or cells: HEK-293 cells; conditions: read-out: D2 [%]
Outline: (§1)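 Detection relied on scintillation counting of bound ligand. Compounds at 1×10^−6 M were evaluated against specific binding, i.e. total binding corrected for the nonspecific fraction seen with excess unlabelled ligand.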
Target sequence in this assay (P14416 1-414 isoform P14416-2): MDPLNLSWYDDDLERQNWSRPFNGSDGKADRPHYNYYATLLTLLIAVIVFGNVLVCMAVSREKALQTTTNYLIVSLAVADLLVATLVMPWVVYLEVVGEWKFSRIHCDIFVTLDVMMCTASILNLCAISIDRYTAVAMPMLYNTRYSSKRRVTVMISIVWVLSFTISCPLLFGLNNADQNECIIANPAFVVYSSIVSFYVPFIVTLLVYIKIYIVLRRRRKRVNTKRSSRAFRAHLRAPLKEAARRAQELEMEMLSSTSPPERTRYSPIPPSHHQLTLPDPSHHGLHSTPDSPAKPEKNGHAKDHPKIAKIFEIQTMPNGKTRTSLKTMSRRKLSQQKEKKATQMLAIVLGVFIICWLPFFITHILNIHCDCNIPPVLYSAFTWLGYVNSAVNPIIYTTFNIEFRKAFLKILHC

dopaminergic D3 receptor = dopaminergic D3 receptor (Homo sapiens, UniProt P35462); experiment: Cellular functional assay, dopaminergic D3 receptor (agonism/antagonism); type: cell-based; conditions: for inhibition at 1 µM: CHO, read-out: D3-antag. [%]; for activation at 1 µM: agonist effect, percent of control specific agonist response (300 nM dopamine for control), 1×10^−6 M, D3 (h), CHO cells, read-out: D3-ag [%]
Protocol: (§2) The compounds were tested at the concentration of 1×10^−6M.
(§3) In the Tables ag refers to agonism, and antag to antagonism).

sigma σ receptor = experiment: Binding assay σ (non-selective), [3H]DTG, rat cerebral cortex; conditions: percent inhibition of control specific binding; compounds tested at 1×10^−6 M
Outline: as §1

[2] = target: T2, serotoninergic 5-HT2A receptor (Homo sapiens, UniProt P28223); experiment: Binding assay 5-HT2A (h), [3H]ketanserin, HEK-293 cells; parameters: expressed in transfected cells; host or cells: HEK-293 cells; conditions: read-out: 5-HT2A
Outline: as §1

[3] = target: T3, serotoninergic 5-HT7 receptor (Homo sapiens, UniProt P34969); experiment: Binding assay 5-HT7 (h), [3H]LSD, CHO cells; parameters: expressed in transfected cells; host or cells: CHO cells; conditions: read-out: 5-HT7
Outline: as §1

dopaminergic D2 receptor [4] = target: T1, dopaminergic D2 receptor; experiment: Cellular functional assay, dopaminergic D2 receptor (agonism/antagonism); type: cell-based; conditions: HEK293; for activation at 1 µM: agonist effect, percent of control specific agonist response (3 μM dopamine for control), 1×10^−6 M, D2S (h), HEK-293 cells, read-out: D2-ag [%]; for inhibition at 1 µM: read-out: D2-antag. [%]
Protocol: as §2, §3
Target sequence in this assay (P14416 whole entry): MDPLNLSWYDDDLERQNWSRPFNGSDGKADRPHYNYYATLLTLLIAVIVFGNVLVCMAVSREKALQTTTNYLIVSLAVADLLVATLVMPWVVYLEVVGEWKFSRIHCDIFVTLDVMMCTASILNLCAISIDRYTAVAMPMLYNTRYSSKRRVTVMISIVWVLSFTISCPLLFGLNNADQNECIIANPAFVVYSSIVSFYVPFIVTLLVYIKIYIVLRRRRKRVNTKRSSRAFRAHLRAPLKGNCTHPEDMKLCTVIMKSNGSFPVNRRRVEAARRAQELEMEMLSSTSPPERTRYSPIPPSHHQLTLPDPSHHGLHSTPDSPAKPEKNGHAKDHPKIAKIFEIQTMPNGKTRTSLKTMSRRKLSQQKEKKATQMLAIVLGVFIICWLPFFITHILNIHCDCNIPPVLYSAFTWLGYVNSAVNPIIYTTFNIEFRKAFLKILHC

[5] = target: histaminergic H1 receptor (Homo sapiens, UniProt P35367); experiment: Binding assay H1 (h), [3H]pyrilamine, HEK-293 cells; parameters: expressed in transfected cells; host or cells: HEK-293 cells; conditions: read-out: H1 [%]
Outline: as §1

adrenergic α1A receptor = target: T4, adrenergic α1A receptor (Homo sapiens, UniProt P35348); experiment: Cellular functional assay, adrenergic α1A receptor (agonism/antagonism); type: cell-based; conditions: for activation at 1 µM: agonist effect, percent of control specific agonist response, compounds tested at 1×10^−6M, read-out: α1A -ag [%]; for inhibition at 1 µM: read-out: α1A -antag. [%]
T4 sequence (P35348 1-466): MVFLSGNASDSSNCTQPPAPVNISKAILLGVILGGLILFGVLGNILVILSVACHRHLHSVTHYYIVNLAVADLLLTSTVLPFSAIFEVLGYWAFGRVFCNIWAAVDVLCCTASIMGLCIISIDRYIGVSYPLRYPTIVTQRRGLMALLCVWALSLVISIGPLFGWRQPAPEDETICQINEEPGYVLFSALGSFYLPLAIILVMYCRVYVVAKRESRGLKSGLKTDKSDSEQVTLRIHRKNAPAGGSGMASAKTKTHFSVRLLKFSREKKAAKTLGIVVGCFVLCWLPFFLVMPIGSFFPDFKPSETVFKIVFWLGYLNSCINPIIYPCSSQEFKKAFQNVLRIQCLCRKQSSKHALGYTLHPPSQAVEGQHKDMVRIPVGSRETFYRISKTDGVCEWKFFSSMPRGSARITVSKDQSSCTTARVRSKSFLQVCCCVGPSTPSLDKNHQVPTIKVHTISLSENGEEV
Outline: (§4)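 Human receptors tested in cell-based functional format for both agonist and antagonist modes. Single compound concentration of 1×10^−6M.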

[6] = target: T2, serotoninergic 5-HT2A receptor; experiment: Cellular functional assay, serotoninergic 5-HT2A receptor (agonism/antagonism); type: cell-based; conditions: for activation at 1 µM: read-out: 5-HT2A -ag [%]; for inhibition at 1 µM: read-out: 5-HT2A -antag [%]
Outline: as §4

[7] = target: T5, serotonine transporter (SERT) receptor (Homo sapiens, UniProt P31645); experiment: Binding assay SERT (h), [3H]imipramine, CHO cells; conditions: read-out: SERT [%]
T5 construct: expressed in transfected cells; host or cells: CHO cells
Outline: as §1

[8] = target: T3, serotoninergic 5-HT7 receptor; experiment: Cellular functional assay, serotoninergic 5-HT7 receptor (agonism/antagonism); type: cell-based; conditions: for activation at 1 µM: agonist effect, percent of control specific agonist response, compounds tested at 1×10^−6M, read-out: 5-HT7-ag [%]; for inhibition at 1 µM: read-out: 5-HT7-antag. [%]
Protocol: as §2, §3

adrenergic α2C receptor = target: T6, adrenergic α2C receptor (Homo sapiens, UniProt P18825); experiment: Binding assay α2C (h), [3H]RX 821002, CHO cells; parameters: expressed in transfected cells; host or cells: CHO cells; conditions: read-out: α2C [%]
T6 sequence (P18825 1-462): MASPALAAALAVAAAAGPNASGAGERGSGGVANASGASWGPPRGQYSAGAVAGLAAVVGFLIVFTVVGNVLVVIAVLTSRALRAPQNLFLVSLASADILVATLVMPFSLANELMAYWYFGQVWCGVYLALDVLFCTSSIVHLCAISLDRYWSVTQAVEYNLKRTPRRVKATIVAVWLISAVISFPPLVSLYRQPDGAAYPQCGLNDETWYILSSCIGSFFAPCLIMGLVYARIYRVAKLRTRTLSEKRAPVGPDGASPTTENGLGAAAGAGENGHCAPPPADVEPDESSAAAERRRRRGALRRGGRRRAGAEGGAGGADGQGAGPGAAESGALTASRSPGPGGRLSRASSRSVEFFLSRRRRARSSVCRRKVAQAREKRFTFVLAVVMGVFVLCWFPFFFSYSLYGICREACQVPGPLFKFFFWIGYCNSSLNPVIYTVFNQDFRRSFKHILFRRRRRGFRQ
Outline: as §1

adrenergic α1 receptor = experiment: Binding assay α1 (non-selective), [3H]prazosin, rat cerebral cortex; conditions: percent inhibition of control specific binding; compounds tested at 1×10^−6 M
Outline: as §1

muscarinic M3 receptor = target: T7, muscarinic M3 receptor (Homo sapiens, UniProt P20309); experiment: Binding assay M3 (h), [3H]4-DAMP, CHO cells; conditions: read-out: M3 [%]
T7 construct: expressed in transfected cells; host or cells: CHO cells
Outline: as §1

T5 sequence (P31645 whole entry): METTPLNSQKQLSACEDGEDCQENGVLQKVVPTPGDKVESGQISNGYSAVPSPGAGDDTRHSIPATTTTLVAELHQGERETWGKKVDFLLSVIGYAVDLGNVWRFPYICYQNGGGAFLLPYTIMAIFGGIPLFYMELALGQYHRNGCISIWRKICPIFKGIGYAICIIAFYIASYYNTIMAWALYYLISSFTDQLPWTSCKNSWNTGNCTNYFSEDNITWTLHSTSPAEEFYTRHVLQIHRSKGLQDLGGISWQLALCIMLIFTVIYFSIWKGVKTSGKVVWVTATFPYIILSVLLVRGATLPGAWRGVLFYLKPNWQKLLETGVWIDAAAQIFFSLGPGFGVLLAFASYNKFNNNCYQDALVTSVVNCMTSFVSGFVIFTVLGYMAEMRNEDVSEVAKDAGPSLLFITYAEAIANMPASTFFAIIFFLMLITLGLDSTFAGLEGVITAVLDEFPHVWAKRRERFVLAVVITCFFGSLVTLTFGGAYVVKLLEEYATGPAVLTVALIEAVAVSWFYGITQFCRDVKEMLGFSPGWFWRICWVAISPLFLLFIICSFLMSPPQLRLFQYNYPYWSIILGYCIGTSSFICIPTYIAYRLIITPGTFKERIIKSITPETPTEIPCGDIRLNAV
histaminergic H1 receptor, sequence (P35367 whole entry): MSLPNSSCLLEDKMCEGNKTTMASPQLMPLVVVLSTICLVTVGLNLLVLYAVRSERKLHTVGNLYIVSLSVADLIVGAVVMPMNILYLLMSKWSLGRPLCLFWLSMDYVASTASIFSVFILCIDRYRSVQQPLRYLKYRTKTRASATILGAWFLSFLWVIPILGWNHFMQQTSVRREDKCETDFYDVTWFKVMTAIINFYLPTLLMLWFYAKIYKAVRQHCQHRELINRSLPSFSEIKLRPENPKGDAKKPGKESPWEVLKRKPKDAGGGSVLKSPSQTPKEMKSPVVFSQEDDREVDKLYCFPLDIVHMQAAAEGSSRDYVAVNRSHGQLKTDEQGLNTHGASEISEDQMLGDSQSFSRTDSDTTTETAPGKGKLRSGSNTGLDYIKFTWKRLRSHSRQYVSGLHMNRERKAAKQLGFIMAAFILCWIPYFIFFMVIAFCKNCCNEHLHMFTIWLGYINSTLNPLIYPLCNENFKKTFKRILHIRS
T2 sequence (P28223 whole entry): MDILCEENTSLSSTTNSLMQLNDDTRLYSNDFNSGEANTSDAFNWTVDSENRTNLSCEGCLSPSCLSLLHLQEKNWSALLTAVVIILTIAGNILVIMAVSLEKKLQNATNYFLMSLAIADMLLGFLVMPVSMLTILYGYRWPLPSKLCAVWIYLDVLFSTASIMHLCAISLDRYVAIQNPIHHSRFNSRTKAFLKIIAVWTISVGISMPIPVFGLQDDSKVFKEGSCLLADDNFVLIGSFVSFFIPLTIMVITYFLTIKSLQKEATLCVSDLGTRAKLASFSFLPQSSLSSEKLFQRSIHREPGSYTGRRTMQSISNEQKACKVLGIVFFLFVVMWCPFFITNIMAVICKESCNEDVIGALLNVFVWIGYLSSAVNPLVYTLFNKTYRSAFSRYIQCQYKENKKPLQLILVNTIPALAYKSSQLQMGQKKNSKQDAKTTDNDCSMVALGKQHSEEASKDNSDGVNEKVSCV
T7 sequence (P20309 whole entry): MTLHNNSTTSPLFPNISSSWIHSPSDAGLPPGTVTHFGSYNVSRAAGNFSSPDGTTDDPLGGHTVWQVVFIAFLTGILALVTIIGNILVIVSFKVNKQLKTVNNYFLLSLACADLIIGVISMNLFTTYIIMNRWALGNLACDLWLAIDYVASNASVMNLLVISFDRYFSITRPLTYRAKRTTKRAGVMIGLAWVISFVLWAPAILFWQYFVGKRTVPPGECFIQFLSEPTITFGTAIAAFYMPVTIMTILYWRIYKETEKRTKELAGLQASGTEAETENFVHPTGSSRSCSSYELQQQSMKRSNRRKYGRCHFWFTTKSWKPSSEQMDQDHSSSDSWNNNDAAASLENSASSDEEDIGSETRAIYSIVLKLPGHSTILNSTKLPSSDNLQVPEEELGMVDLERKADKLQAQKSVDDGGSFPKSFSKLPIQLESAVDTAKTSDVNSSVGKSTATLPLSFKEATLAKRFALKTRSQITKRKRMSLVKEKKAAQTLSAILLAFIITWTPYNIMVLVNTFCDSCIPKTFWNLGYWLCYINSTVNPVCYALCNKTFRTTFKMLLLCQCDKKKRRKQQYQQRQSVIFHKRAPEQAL
T3 sequence (P34969 whole entry): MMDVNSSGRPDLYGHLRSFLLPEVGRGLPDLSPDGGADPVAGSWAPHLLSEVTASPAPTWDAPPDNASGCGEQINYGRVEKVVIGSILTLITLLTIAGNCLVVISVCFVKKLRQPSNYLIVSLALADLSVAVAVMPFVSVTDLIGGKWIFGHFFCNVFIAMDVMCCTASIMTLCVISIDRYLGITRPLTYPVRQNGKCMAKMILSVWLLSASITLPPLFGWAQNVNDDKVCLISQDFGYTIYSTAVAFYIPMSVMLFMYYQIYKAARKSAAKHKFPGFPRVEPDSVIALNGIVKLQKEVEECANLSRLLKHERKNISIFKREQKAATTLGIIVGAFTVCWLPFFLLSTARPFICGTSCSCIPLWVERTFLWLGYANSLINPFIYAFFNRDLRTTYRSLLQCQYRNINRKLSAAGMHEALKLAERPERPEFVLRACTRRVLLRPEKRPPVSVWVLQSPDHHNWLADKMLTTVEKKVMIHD
dopaminergic D3 receptor, sequence (P35462 whole entry): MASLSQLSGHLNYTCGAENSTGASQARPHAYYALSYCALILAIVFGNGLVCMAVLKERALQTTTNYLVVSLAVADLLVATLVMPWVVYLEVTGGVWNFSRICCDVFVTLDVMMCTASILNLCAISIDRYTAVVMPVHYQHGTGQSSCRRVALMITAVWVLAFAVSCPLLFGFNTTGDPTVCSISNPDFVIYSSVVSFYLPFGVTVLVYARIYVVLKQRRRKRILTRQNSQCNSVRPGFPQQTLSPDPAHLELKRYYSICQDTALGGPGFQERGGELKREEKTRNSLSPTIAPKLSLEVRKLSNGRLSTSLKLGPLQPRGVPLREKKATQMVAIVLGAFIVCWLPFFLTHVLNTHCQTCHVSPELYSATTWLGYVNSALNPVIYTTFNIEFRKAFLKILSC

SMILES | inhibition at 1 µM (dopaminergic D2 receptor [1]) | inhibition at 1 µM (dopaminergic D3 receptor) | activation at 1 µM (dopaminergic D3 receptor) | σ [%] (sigma σ receptor) | inhibition at 1 µM [2] | inhibition at 1 µM [3] | activation at 1 µM (dopaminergic D2 receptor [4]) | inhibition at 1 µM (dopaminergic D2 receptor [4]) | inhibition at 1 µM [5] | activation at 1 µM (adrenergic α1A receptor) | inhibition at 1 µM (adrenergic α1A receptor) | activation at 1 µM [6] | inhibition at 1 µM [6] | inhibition at 1 µM [7] | activation at 1 µM [8] | inhibition at 1 µM [8] | inhibition at 1 µM (adrenergic α2C receptor) | α1 [%] (adrenergic α1 receptor) | inhibition at 1 µM (muscarinic M3 receptor)
Cc1c(S(=O)(=O)NCCCCN2CCN(c3noc4ccccc34)CC2)sc2ccc(F)cc12 [Compound 81, N-[4-[4-(1,2-Benzoxazol-3-yl)piperazin-1-yl]butyl]-5-fluoro-3-methylbenzothiophene-2-sulphonamide] | 90% | 76% | -10% | 59% | 101% | 99% | 4% | 73% | 93% | 1% | 100% | -1% | 95% | 28% | -2% | 98% | 106% | 96% | 6%
O=S(=O)(NCCCCN1CCC(c2noc3cc(F)ccc23)CC1)c1ccc2cc(Cl)ccc2c1 [Compound 97, 6-Chloro-N-[4-[4-(6-fluoro-1,2-benzoxazol-3-yl)piperidin-1-yl]butyl]naphthalene-2-sulphonamide] | 100% | 87% | -23% | 55% | 100% | 93% | 4% | 95% | 91% | 0% | 99% | -3% | 102% | 61% | -2% | 100% | 100% | 98% | 16%
Cc1c(S(=O)(=O)NCCCCN2CCC(c3noc4cc(F)ccc34)CC2)sc2ccc(F)cc12 [Compound 101, 5-Fluoro-N-[4-[4-(6-fluoro-1,2-benzoxazol-3-yl)piperidin-1-yl]butyl]-3-methylbenzothiophene-2-sulphonamide] | 99% | 112% | -18% | 70% | 100% | 98% | 6% | 85% | 97% | 0% | 100% | -1% | 100% | 47% | -2% | 101% | 106% | 99% | 14%
Cc1c(S(=O)(=O)NCCCN2CCC(c3noc4cc(F)ccc34)CC2)sc2ccc(F)cc12 [Compound 102, 5-Fluoro-N-[3-[4-(6-fluoro-1,2-benzoxazol-3-yl)piperidin-1-yl]propyl]-3-methylbenzothiophene-2-sulphonamide] | 100% | 83% | 4% | 74% | 101% | 97% | 1% | 85% | 94% | 0% | 100% | -2% | 99% | 38% | -2% | 94% | 101% | 99% | 18%
O=S(=O)(NCCCCN1CCN(c2nsc3ccccc23)CC1)c1cc2ccccc2s1 [Compound 239, N-[4-[4-(1,2-Benzothiazol-3-yl)piperazin-1-yl]butyl]benzothiophene-2-sulphonamide] | 102% | 84% | 6% | 69% | 101% | 98% | 13% | 84% | 98% | -1% | 100% | -2% | 94% | 64% | -2% | 81% | 105% | 99% | 9%
O=S(=O)(NCCCCN1CCN(c2nsc3ccccc23)CC1)c1csc2ccccc12 [Compound 240, N-[4-[4-(1,2-Benzothiazol-3-yl)piperazin-1-yl]butyl]benzothiophene-3-sulphonamide] | 101% | 72% | 8% | 44% | 101% | 97% | 3% | 83% | 92% | 0% | 100% | -3% | 93% | 46% | -2% | 98% | 100% | 96% | 15%
O=S(=O)(NCCCCN1CCN(c2nsc3ccccc23)CC1)c1cc2ccc(Cl)cc2s1 [Compound 241, N-[4-[4-(1,2-Benzothiazol-3-yl)piperazin-1-yl]butyl]-6-chlorobenzothiophene-2-sulphonamide] | 100% | 78% | 7% | 51% | 101% | 99% | 6% | 82% | 97% | 0% | 95% | -2% | 99% | 50% | -2% | 83% | 98% | 93% | 4%
